Broadly, the IC50 is the concentration at which inhibition is half-maximal.

The first test addresses T1, EPAC1 (Homo sapiens (Human), UniProt O95398).
Experiment: not given
Settings: not given
In the case of `COc1ccc(-c2cc(C(=O)C(C#N)=NNc3cccc(Cl)c3)no2)cc1` [Compound 22, N-(3-Chlorophenyl)-2-(5-(4-methoxyphenyl)isoxazol-3-yl)-2-oxoacetohydrazonoyl cyanide], the “Relative GEF activity, EPAC1-mediated Rap1b-bGDP exchange” value is recorded as “Dose-dependent inhibition”. Regarding `N#CC(NNc1ccc(C(F)(F)F)c(Cl)c1)C(=O)c1cc(-c2ccccc2)on1` (stereo not shown) [Compound 17b], the “Rap 1b-bGDP EPAC1 IC50” value is listed as “low micromolar range”.

The test is the same for the next values; noted with them: read-out: Rap 1b-bGDP EPAC1 IC50.
On to `N#CC(NNc1ccc(C(F)(F)F)c(Cl)c1)C(=O)c1cc(-c2ccccc2)on1` (stereo not shown) [Compound 17b], for which the IC50 stood at 5.1 ± 0.3 µM.

In a further test the target is T1, EPAC1. In words: biochemical. Conditions: Rap 1b-bGDP EPAC1 IC50.
In turn, `N#CC(=NNc1cc(Cl)cc(C(F)(F)F)c1)C(=O)c1cc(-c2ccccc2)on1` [Compound 13, N′-(3-Chloro-5-(trifluoromethyl)phenyl)-2-oxo-2-(5-phenylisoxazol-3 yl)acetohydrazonoyl cyanide] gave an IC50 of 9.5 ± 1.2 µM. Same read-out and setting: for `COc1ccc(-c2cc(C(=O)C(C#N)=NNc3cccc(Cl)c3)no2)cc1` [Compound 22, N-(3-Chlorophenyl)-2-(5-(4-methoxyphenyl)isoxazol-3-yl)-2-oxoacetohydrazonoyl cyanide] the value was 11.4 ± 2.8 µM; for `N#CC(=NNc1ccc(F)c(Cl)c1)C(=O)c1noc2ccccc12` [Compound 35, 2-(Benzo[d]isoxazol-3-yl)-N-(3-chloro-4-fluorophenyl)-2-oxoacetohydrazonoyl cyanide], 8.5 ± 3.5 µM; for `N#CC(=NNc1cc(F)cc(Cl)c1)C(=O)c1noc2ccccc12` [Compound 34, 2-(Benzo[d]isoxazol-3-yl)-N-(3-chloro-5-fluorophenyl)-2-oxoacetohydrazonoyl cyanide], 18.9 ± 4.9 µM. For `CC(C)(C)c1ccc(-c2cc(C(=O)C(C#N)=NNc3cccc(Cl)c3)no2)cc1` [Compound 7, N-(3-Chlorophenyl)-2-(5-(4-(tert-butyl)phenyl)isoxazol-3-yl)-2-oxoacetohydrazonoyl cyanide], half-maximal inhibition (IC50) required 8.6 µM. The same measure, in the same setting: for `N#CC(=NNc1cccc(Cl)c1)C(=O)c1noc2ccccc12` [Compound 30, 2-(Benzo[d]isoxazol-3-yl)-N-(3-chlorophenyl)-2-oxoacetohydrazonoyl cyanide] the value was 13.2 µM. For the compound `N#CC(=NNc1ccc(Cl)c(C(F)(F)F)c1)C(=O)c1cc(-c2ccc(Cl)cc2)on1` [Compound 20, N-(4-Chloro-3-(trifluoromethyl)phenyl)-2-oxo-2-(5-(4-chlorophenyl)isoxazol-3-yl)acetohydrazonoyl cyanide], the concentration for half-maximal inhibition (IC50) turned out to be 7.8 ± 2.1 µM.

Still in this test, the particulars now being: Rap 1b-bGDP EPAC1 IC50, apparent IC50, EPAC1 GEF activity, 20 μM cAMP.
On to `CC(C)(C)c1ccc(-c2cc(C(=O)C(C#N)=NNc3cc(C(F)(F)F)cc(C(F)(F)F)c3)no2)cc1` [Compound 11, N-(3,5-Bis(trifluoromethyl)phenyl)-2-(5-(4-(tert-butyl)phenyl)isoxazol-3-yl)-2-oxoacetohydrazonoyl cyanide], for which the IC50 was determined as 11.9 ± 6 µM. On to `N#CC(=NNc1cc(C(F)(F)F)cc(C(F)(F)F)c1)C(=O)c1noc2ccccc12` [Compound 36, 2-(Benzo[d]isoxazol-3-yl)-N-(3,5-bis(trifluoromethyl)phenyl)-2-oxoacetohydrazonoyl cyanide], for which the IC50 was 6.7 ± 0.7 µM. On the same count and under the same terms, for `N#C/C(=N\Nc1cc(Cl)cc(Cl)c1)C(=O)c1cccc(Cl)c1` [ZL0546, (E)-2-(3-chlorophenyl)-N-(3,5-dichlorophenyl)-2-oxoacetohydrazonoyl cyanide] the value was above 300 µM. The same measure, in the same setting: for `CC(C)(C)c1ccc(-c2cc(C(=O)C(C#N)=NNc3ccc(C(F)(F)F)c(Cl)c3)no2)cc1` [Compound 9, N-(3-Chloro-4-(trifluoromethyl)phenyl)-2-oxo-2-(5-(4-(tert-butyl)phenyl)isoxazol-3-yl)acetohydrazonoyl cyanide] the value was 9 ± 3.9 µM; for `COc1ccc(C(=O)/C(C#N)=N/Nc2cc(Cl)cc(Cl)c2)cc1OC` [ZL0631, (E)-N-(3,5-dichlorophenyl)-2-(3,4-dimethoxyphenyl)-2-oxoacetohydrazonoyl cyanide], above 300 µM; for `N#C/C(=N\Nc1cc(Cl)cc(Cl)c1)C(=O)c1ccc(Cl)cc1` [ZL0491, (E)-2-(4-chlorophenyl)-N-(3,5-dichlorophenyl)-2-oxoacetohydrazonoyl cyanide], above 300 µM.

These data come from US11124489B2, “EPAC antagonists” (priority 2017, dated 2021).
